Assay results from patent US10259818B2, “Bicyclic azaheterocyclobenzylamines as PI3K inhibitors” (Incyte Corporation, priority 2012, dated 2019).
pIC50: −log10 of the molar value.

system: SUDHL-6 cell line (diffuse large B cell lymphoma); assay: SUDHL-6 cell proliferation assay (Example B3); assay type: cell-based; conditions: Homo sapiens, SU-DHL-6, 72 h, SUDHL-6 cells, 3 days, Cell Titer-GLO
Description: Example B3: SUDHL-6 Cell Proliferation Assay
SUDHL-6 cell line (diffuse large B cell lymphoma) was purchased from ATCC (Manassas, Va.) and maintained in the culture medium recommended (RPMI and 10% FBS). To measure the anti-proliferation activity of the compounds through ATP quantitation, the SUDHL-6 cells was plated with the culture medium (5000 cells/well/per 200 μl) into 96-well polystyrene clear black tissue culture plate (Greiner-bio-one through VWR, NJ) in the presence or absence of a concentration range of test compounds. After 3 days, Cell Titer-GLO Luminescent (Promega, Madison, Wis.) cell culture agent was added to each well for 10 minutes at room temperature to stabilize the luminescent signal. This determines the number of viable cells in culture based on quantitation of the ATP present, which signals the presence of metabolically active cells. Luminescence was measured with the TopCount 384 (Packard Bioscience through Perkin Elmer, Boston, Mass.). […] IC50 data for the Examples is presented in Table 4 determined by the assay of Example B3.

| pIC50 | Compound |
| --- | --- |
| ≥ 6.30 | CCNC(=O)N1CC(N2Cc3c(C#N)c(Cl)cc(C(C)n4nc(C)c5c(N)ncnc54)c3OC(C)C2)C1 (single isomer, unassigned) [Example 97, 3-[9-[1-(4-amino-3-methyl-1H-pyrazolo[3,4-d]pyrimidin-1-yl)ethyl]-7-chloro-6-cyano-2-methyl-2,3-dihydro-1,4-benzoxazepin-4(5H)-yl]-N-ethylazetidine-1-carboxamide] |
| ≥ 6.30 | CCOC(=O)N1CC(N2Cc3c(C#N)c(Cl)cc(C(C)n4nc(C)c5c(N)ncnc54)c3OC(C)C2)C1 (single isomer, unassigned) [Example 99, ethyl 3-[9-[1-(4-amino-3-methyl-1H-pyrazolo[3,4-d]pyrimidin-1-yl)ethyl]-7-chloro-6-cyano-2-methyl-2,3-dihydro-1,4-benzoxazepin-4(5H)-yl]azetidine-1-carboxylate] |
| ≥ 6.30 | Cc1nn(C(C)c2cc(Cl)c(C#N)c3c2OC(C)CN(C2CN(C(=O)NC(C)C)C2)C3)c2ncnc(N)c12 (single isomer, unassigned) [Example 101, 3-[9-[1-(4-amino-3-methyl-1H-pyrazolo[3,4-d]pyrimidin-1-yl)ethyl]-7-chloro-6-cyano-2-methyl-2,3-dihydro-1,4-benzoxazepin-4(5H)-yl]-N-isopropylazetidine-1-carboxamide] |
| ≥ 6.30 | Cc1nn(C(C)c2cc(Cl)c(C#N)c3c2OC(C)CN(C2CN(CCO)C2)C3)c2ncnc(N)c12 (single isomer, unassigned) [Example 104, 9-[1-(4-amino-3-methyl-1H-pyrazolo[3,4-d]pyrimidin-1-yl)ethyl]-7-chloro-4-[1-(2-hydroxyethyl)azetidin-3-yl]-2-methyl-2,3,4,5-tetrahydro-1,4-benzoxazepine-6-carbonitrile] |
| ≥ 6.30 | Cc1nn(C(C)c2cc(Cl)c(C#N)c3c2OC(C)CN(C2CN(S(=O)(=O)N(C)C)C2)C3)c2ncnc(N)c12 (single isomer, unassigned) [Example 105, 3-[9-[1-(4-amino-3-methyl-1H-pyrazolo[3,4-d]pyrimidin-1-yl)ethyl]-7-chloro-6-cyano-2-methyl-2,3-dihydro-1,4-benzoxazepin-4(5H)-yl]-N,N-dimethylazetidine-1-sulfonamide] |

same assay, conditions: SUDHL-6 cells, 3 days, Cell Titer-GLO

| pIC50 | Compound |
| --- | --- |
| ≥ 6.30 | CCNC(=O)N1CC(N2Cc3c(C#N)c(Cl)cc(C(C)n4nc(C)c5c(N)ncnc54)c3OC(C)C2)C1 (single isomer, unassigned) [Example 98, 3-[9-[1-(4-amino-3-methyl-1H-pyrazolo[3,4-d]pyrimidin-1-yl)ethyl]-7-chloro-6-cyano-2-methyl-2,3-dihydro-1,4-benzoxazepin-4(5H)-yl]-N-ethylazetidine-1-carboxamide] |
| ≥ 6.30 | CCOC(=O)N1CC(N2Cc3c(C#N)c(Cl)cc(C(C)n4nc(C)c5c(N)ncnc54)c3OC(C)C2)C1 (single isomer, unassigned) [Example 100, ethyl 3-[9-[1-(4-amino-3-methyl-1H-pyrazolo[3,4-d]pyrimidin-1-yl)ethyl]-7-chloro-6-cyano-2-methyl-2,3-dihydro-1,4-benzoxazepin-4(5H)-yl]azetidine-1-carboxylate] |
| ≥ 6.30 | Cc1nn(C(C)c2cc(Cl)c(C#N)c3c2OC(C)CN(C2CN(C(=O)NC(C)C)C2)C3)c2ncnc(N)c12 (single isomer, unassigned) [Example 102, 3-[9-[1-(4-amino-3-methyl-1H-pyrazolo[3,4-d]pyrimidin-1-yl)ethyl]-7-chloro-6-cyano-2-methyl-2,3-dihydro-1,4-benzoxazepin-4(5H)-yl]-N-isopropylazetidine-1-carboxamide] |
| ≥ 6.30 | Cc1nn(C(C)c2cc(Cl)c(C#N)c3c2OC(C)CN(C2CN(S(=O)(=O)N(C)C)C2)C3)c2ncnc(N)c12 (single isomer, unassigned) [Example 106, 3-[9-[1-(4-amino-3-methyl-1H-pyrazolo[3,4-d]pyrimidin-1-yl)ethyl]-7-chloro-6-cyano-2-methyl-2,3-dihydro-1,4-benzoxazepin-4(5H)-yl]-N,N-dimethylazetidine-1-sulfonamide] |
